From patent US20110189241A1, “Process For Controlling The Particle Size of A [3-(Trifluoromethyl)Phenyl]-1-Aminopropane Derivative” (Medichem, S.A., priority 2008, published 2011) come the findings set out here.

The nature of this data set: Particle size distribution (Malvern Mastersizer S, laser diffraction, by volume). It counts as physicochemical. The settings on record: for particle size D[v, 0.5]: crystals as isolated after crystallization from isobutyl acetate and drying, mean of nine readings, hydrochloride. As for the experimental part:
The particle size for cinacalcet hydrochloride was measured using a Malvern Mastersizer S particle size analyzer with an MS1 Small Volume Sample Dispersion Unit stirred cell. A 300RF mm lens and a beam length of 2.4 mm were used. Samples for analysis were prepared by dispersing a weighed amount of cinacalcet hydrochloride (approximately 60 mg) in 20 mL of sample dispersant, previously prepared by dilution of 1.5 g of Soybean Lecithin to 200 mL with Isopar G. The suspension was delivered drop-wise to the background-corrected measuring cell filled with dispersant (Isopar G) until the obscuration reached the desired level. Nine repeated readings of the volume distributions were taken. For characterization, the values of D50 and D90 (by volume) were selected and reported as the mean of the nine values measured.

`C[C@@H](NCCCc1cccc(C(F)(F)F)c1)c1cccc2ccccc12.Cl` [Example 4, cinacalcet hydrochloride] yielded a particle size D[v, 0.9] (crystals as isolated after crystallization (Example 4)) of 404 µm.

Regarding `C[C@@H](NCCCc1cccc(C(F)(F)F)c1)c1cccc2ccccc12.Cl` [Example 6, cinacalcet hydrochloride], the “particle size D[v, 0.5]” value was found to be 65.0 μm.

As for `C[C@@H](NCCCc1cccc(C(F)(F)F)c1)c1cccc2ccccc12.Cl` [Example 9, cinacalcet hydrochloride], the “particle size D[v, 0.5]” value was found to be 74.0 μm. The particle size D[v, 0.9] (crystals as isolated after crystallization (Example 9)) came out at 518 µm.
